The term Kd denotes the equilibrium constant for the complex coming apart.

The experiment has as its target C-terminal-binding protein 2 (Homo sapiens, UniProt P56545). Briefly: CtBP2 ITC. The conditions noted are these: pH 8.5. The text has this:
Five mM MTOB was utilized for competitive displacement assays.

With `CSCCC(=O)C(=O)O` [4-Methylthio 2-oxobutyric acid (MTOB)], the Kd turned out to be 2960 µM.

(Values after BindingDB's records for doi:10.1021/cb500820b (University of Massachusetts Medical School, 2015).)
